Results on 33 compounds are retold here after US20220002314A1 (priority 2018, published 2022).

Structures are written as SMILES. Where two headings read alike, the source gives them in different places.

One experiment concerns the target Human μ-opioid receptor (Homo sapiens, UniProt P35372). Description: biochemical. In kind it is binding.
In experiment [1] the target is Human α2δ-1 subunit of Cav2.2 calcium channel (Homo sapiens, UniProt P54289). Description: biochemical. Type of experiment: binding.
Chain of Human α2δ-1 subunit of Cav2.2 calcium channel (P54289 25-1103): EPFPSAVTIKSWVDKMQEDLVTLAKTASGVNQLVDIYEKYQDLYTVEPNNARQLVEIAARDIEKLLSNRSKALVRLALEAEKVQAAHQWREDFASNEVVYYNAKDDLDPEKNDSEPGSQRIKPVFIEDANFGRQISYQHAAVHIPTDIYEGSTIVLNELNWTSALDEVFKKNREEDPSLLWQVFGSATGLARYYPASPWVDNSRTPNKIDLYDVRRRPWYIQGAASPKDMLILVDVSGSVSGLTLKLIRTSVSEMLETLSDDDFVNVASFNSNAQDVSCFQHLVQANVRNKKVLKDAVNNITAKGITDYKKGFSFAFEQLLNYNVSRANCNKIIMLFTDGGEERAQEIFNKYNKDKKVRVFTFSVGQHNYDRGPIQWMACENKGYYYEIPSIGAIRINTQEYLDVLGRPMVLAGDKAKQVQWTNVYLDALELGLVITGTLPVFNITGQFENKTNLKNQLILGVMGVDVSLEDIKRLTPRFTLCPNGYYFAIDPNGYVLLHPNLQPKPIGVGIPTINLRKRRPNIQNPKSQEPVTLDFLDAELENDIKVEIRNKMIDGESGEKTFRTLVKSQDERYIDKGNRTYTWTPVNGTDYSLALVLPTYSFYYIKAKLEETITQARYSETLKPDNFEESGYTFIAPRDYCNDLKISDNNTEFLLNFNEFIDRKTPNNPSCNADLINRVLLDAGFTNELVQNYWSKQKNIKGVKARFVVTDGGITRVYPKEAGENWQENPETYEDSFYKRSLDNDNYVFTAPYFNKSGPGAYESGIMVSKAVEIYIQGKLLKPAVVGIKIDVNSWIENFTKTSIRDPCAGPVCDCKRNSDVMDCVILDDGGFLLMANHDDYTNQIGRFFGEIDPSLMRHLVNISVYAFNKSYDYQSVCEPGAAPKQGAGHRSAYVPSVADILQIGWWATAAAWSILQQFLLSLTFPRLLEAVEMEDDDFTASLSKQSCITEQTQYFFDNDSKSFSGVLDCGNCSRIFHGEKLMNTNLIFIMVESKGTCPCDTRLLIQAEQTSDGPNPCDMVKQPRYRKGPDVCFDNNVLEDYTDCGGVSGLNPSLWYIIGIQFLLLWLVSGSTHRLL

Chain of Human μ-opioid receptor (P35372 whole entry): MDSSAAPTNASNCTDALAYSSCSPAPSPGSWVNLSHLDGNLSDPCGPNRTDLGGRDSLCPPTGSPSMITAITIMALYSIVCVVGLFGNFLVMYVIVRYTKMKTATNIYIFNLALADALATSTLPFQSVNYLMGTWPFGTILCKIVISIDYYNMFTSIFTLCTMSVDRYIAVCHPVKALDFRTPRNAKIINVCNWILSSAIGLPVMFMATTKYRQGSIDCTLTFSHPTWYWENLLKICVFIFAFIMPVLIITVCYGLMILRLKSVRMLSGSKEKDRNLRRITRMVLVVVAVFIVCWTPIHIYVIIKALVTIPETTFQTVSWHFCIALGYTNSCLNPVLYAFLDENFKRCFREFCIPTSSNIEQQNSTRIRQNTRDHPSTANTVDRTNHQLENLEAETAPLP

As for `CCCC(c1nc2ccc(CN(C)CC(C)C)cc2c(=O)n1CC)N1C[C@@H](C)N[C@@H](C)C1` (stereo partly drawn) [Example 184, 2-(1-((3S,5R)-3,5-dimethylpiperazin-1-yl)butyl)-3-ethyl-6-((isobutyl(methyl)amino)methyl)quinazolin-4(3H)-one], the Ki was above 500 nM on Human μ-opioid receptor and below 500 nM in experiment [1].

In the case of `CCCC(c1nc2ccc(CN(C)CCC(C)C)cc2c(=O)n1CC)N1C[C@@H](C)N[C@@H](C)C1` (stereo partly drawn) [Example 185, 2-(1-((3S,5R)-3,5-dimethylpiperazin-1-yl)butyl)-3-ethyl-6-((isopentyl(methyl)amino)methyl)quinazolin-4(3H)-one], the Ki at Human μ-opioid receptor is above 500 nM; in experiment [1], below 500 nM.

For `CCCC(c1nc2cc(CN3CCN(C)CC3)ccc2c(=O)n1C)N1C[C@@H](C)N[C@@H](C)C1` (stereo partly drawn) [Example 186, 2-(1-((3S,5R)-3,5-dimethylpiperazin-1-yl)butyl)-3-methyl-7-((4-methylpiperazin-1-yl)methyl)quinazolin-4(3H)-one], the Ki at Human μ-opioid receptor is above 500 nM; in experiment [1], below 500 nM.

Regarding `CCCC(c1nc2ccc(Br)cc2c(=O)n1CC)C1CCNCC1` (stereo not drawn) [Example 187, 6-Bromo-3-ethyl-2-(1-(piperidin-4-yl)butyl)quinazolin-4(3H)-one], the Ki at Human μ-opioid receptor (read-out: μ-binding) was above 500 nM; in experiment [1] (read-out: α2δ-1 binding), 500 to 5000 nM.

Take `CCCC(C1=CCNCC1)c1nc2ccc(Br)cc2c(=O)n1CC` (stereo not drawn) [Example 188, 6-bromo-3-ethyl-2-(1-(1,2,3,6-tetrahydropyridin-4-yl)butyl)quinazolin-4(3H)-one]: the values for the Ki (at Human μ-opioid receptor (read-out: μ-binding); in experiment [1] (read-out: α2δ-1 binding)) were above 500 nM and 500 to 5000 nM, respectively.

As to `CCC[C@@H](c1nc2ccc(Br)cc2c(=O)n1CC)[C@H]1CCN[C@@H](C)C1` [Example 190, 6-Bromo-3-ethyl-2-((R)-1-((2S,4S)-2-methylpiperidin-4-yl)butyl)quinazolin-4(3H)-one], the Ki at Human μ-opioid receptor is above 500 nM; in experiment [1], above 5000 nM.

Take `CCC[C@H](c1nc2ccc(Br)cc2c(=O)n1CC)[C@H]1CCN[C@@H](C)C1` [Example 191, 6-bromo-3-ethyl-2-((S)-1-((2S,4S)-2-methylpiperidin-4-yl)butyl)quinazolin-4(3H)-one]: the Ki at Human μ-opioid receptor was 100 to 500 nM; in experiment [1], below 500 nM.

Regarding `CCC[C@@H](c1nc2ccc(Br)cc2c(=O)n1CC)[C@@H]1CCN[C@@H](C)C1` [Example 192, 6-bromo-3-ethyl-2-((R)-1-((2S,4R)-2-methylpiperidin-4-yl)butyl)quinazolin-4(3H)-one], the Ki is above 500 nM at Human μ-opioid receptor and above 5000 nM in experiment [1].

On to `CCC[C@H](c1nc2ccc(Br)cc2c(=O)n1CC)[C@@H]1CCN[C@@H](C)C1` [Example 193, 6-bromo-3-ethyl-2-((S)-1-((2S,4R)-2-methylpiperidin-4-yl)butyl)quinazolin-4(3H)-one], for which the figures for the Ki (at Human μ-opioid receptor; in experiment [1]) were above 500 nM and above 5000 nM, respectively.

Consider `CCC[C@H](c1nc2ccc(Br)cc2c(=O)n1CC)[C@@H]1CCNCC1(F)F` [Example 194, 6-Bromo-2-((S)-1-((S)-3,3-difluoropiperidin-4-yl)butyl)-3-ethylquinazolin-4(3H)-one], for which the results for the Ki (at Human μ-opioid receptor; in experiment [1]) were above 500 nM and above 5000 nM, respectively.

For `CCC[C@@H](c1nc2ccc(Br)cc2c(=O)n1CC)[C@H]1CCNCC1(F)F` [Example 195, 6-bromo-2-((R)-1-((R)-3,3-difluoropiperidin-4-yl)butyl)-3-ethylquinazolin-4(3H)-one], the Ki was above 500 nM on Human μ-opioid receptor and below 500 nM in experiment [1].

Regarding `CCC[C@H](c1nc2ccc(Br)cc2c(=O)n1CC)[C@H]1CCNCC1(F)F` [Example 196, 6-bromo-2-((S)-1-((R)-3,3-difluoropiperidin-4-yl)butyl)-3-ethylquinazolin-4(3H)-one], the Ki at Human μ-opioid receptor was above 500 nM; in experiment [1], above 5000 nM.

For `CCC[C@@H](c1nc2ccc(Br)cc2c(=O)n1CC)[C@@H]1CCNCC1(F)F` [Example 197, 6-bromo-2-((R)-1-((S)-3,3-difluoropiperidin-4-yl)butyl)-3-ethylquinazolin-4(3H)-one], the Ki at Human μ-opioid receptor is above 500 nM; in experiment [1] it was 500 to 5000 nM.

On to `CCC[C@H](c1nc2ccc(Cl)cc2c(=O)n1C)N1CCN[C@@H](C)C1` [Example 198, 6-chloro-3-methyl-2-((R)-1-((S)-3-methylpiperazin-1-yl)butyl)quinazolin-4(3H)-one], for which the Ki at Human μ-opioid receptor is 100 to 500 nM; in experiment [1], below 500 nM.

Take `CCC[C@H](c1nc2c(F)cc(Cl)cc2c(=O)n1CC)N1CCNCC1` [Example 199, (R)-6-chloro-3-ethyl-8-fluoro-2-(1-(piperazin-1-yl)butyl)quinazolin-4(3H)-one]: the Ki at Human μ-opioid receptor is 100 to 500 nM; in experiment [1] it was below 500 nM.

For `CCC[C@H](c1nc2c(F)cc(F)cc2c(=O)n1CC)N1CCNCC1` [Example 200, (R)-3-ethyl-6,8-difluoro-2-(1-(piperazin-1-yl)butyl)quinazolin-4(3H)-one], the Ki at Human μ-opioid receptor was 100 to 500 nM; in experiment [1], below 500 nM.

On to `CCC[C@H](c1nc2c(F)cc(F)cc2c(=O)n1CC)N1CCN[C@@H](C)C1` [Example 201, 3-ethyl-6,8-difluoro-2-((R)-1-((S)-3-methylpiperazin-1-yl)butyl)quinazolin-4(3H)-one], for which the Ki on Human μ-opioid receptor was below 100 nM; in experiment [1], below 500 nM.

As to `CCC[C@H](c1nc2ccc(F)cc2c(=O)n1CCC)N1CCN[C@@H](C)C1` [Example 202, 6-fluoro-2-((R)-1-((S)-3-methylpiperazin-1-yl)butyl)-3-propylquinazolin-4(3H)-one], the Ki on Human μ-opioid receptor is above 500 nM; in experiment [1], below 500 nM.

For `CCC[C@H](c1nc2c(F)cccc2c(=O)n1CC)N1CCN[C@@H](C)C1` [Example 203, 3-ethyl-8-fluoro-2-((R)-1-((S)-3-methylpiperazin-1-yl)butyl)quinazolin-4(3H)-one], the results for the Ki (at Human μ-opioid receptor; in experiment [1]) were above 500 nM and below 500 nM, respectively.

For the compound `CCC[C@H](c1nc2ccc(OC(F)(F)F)cc2c(=O)n1CC)N1CCN[C@@H](C)C1` [Example 204, 3-ethyl-2-((R)-1-((S)-3-methylpiperazin-1-yl)butyl)-6-(trifluoromethoxy)quinazolin-4(3H)-one], the Ki on Human μ-opioid receptor is above 500 nM; in experiment [1], below 500 nM.

For the compound `CCC[C@H](c1nc2ccc(F)cc2c(=O)n1C)N1CCN[C@@H](C)C1` [Example 205, 6-fluoro-3-methyl-2-((R)-1-((S)-3-methylpiperazin-1-yl)butyl)quinazolin-4(3H)-one], the Ki on Human μ-opioid receptor was 100 to 500 nM; in experiment [1], below 500 nM.

For the compound `CCC[C@H](c1nc2cc(Cl)c(Cl)cc2c(=O)n1C)N1CCN[C@@H](C)C1` [Example 206, 6,7-dichloro-3-methyl-2-((R)-1-((S)-3-methylpiperazin-1-yl)butyl)quinazolin-4(3H)-one], the Ki is 100 to 500 nM on Human μ-opioid receptor and below 500 nM in experiment [1].

As for `CCC[C@H](c1nc2ccc(C(F)(F)F)cc2c(=O)n1CC)N1CCN[C@@H](C)C1` [Example 207, 3-ethyl-2-((R)-1-((S)-3-methylpiperazin-1-yl)butyl)-6-(trifluoromethyl)quinazolin-4(3H)-one], the Ki at Human μ-opioid receptor is 100 to 500 nM; in experiment [1] it was below 500 nM.

With `CCC[C@H](c1nc2cc(F)c(Br)cc2c(=O)n1CC)N1CCN[C@H](C)C1` [Example 208, 6-bromo-3-ethyl-7-fluoro-2-((R)-1-((R)-3-methylpiperazin-1-yl)butyl)quinazolin-4(3H)-one], the Ki at Human μ-opioid receptor is above 500 nM; in experiment [1], below 500 nM.

As for `CCC[C@@H](c1nc2cc(F)c(Br)cc2c(=O)n1CC)N1CCN[C@H](C)C1` [Example 209, 6-bromo-3-ethyl-7-fluoro-2-((S)-1-((R)-3-methylpiperazin-1-yl)butyl)quinazolin-4(3H)-one], the figures for the Ki (at Human μ-opioid receptor; in experiment [1]) were 100 to 500 nM and below 500 nM, respectively.

On to `CCC[C@H](c1nc2cc(F)c(OC)cc2c(=O)n1CC)N1CCN[C@H](C)C1` [Example 210, 3-ethyl-7-fluoro-6-methoxy-2-((R)-1-((R)-3-methylpiperazin-1-yl)butyl)quinazolin-4(3H)-one], for which the Ki at Human μ-opioid receptor is above 500 nM; in experiment [1], below 500 nM.

Regarding `CCC[C@H](c1nc2ccc(OC)cc2c(=O)n1CC)N1CCN[C@H](C)C1` [Example 211, 3-ethyl-6-methoxy-2-((R)-1-((R)-3-methylpiperazin-1-yl)butyl)quinazolin-4(3H)-one], the Ki was above 500 nM on Human μ-opioid receptor and below 500 nM in experiment [1].

`CCC[C@H](c1nc2ccc(Br)cc2c(=O)n1CC)N1CCN[C@@H](CC)C1` [Example 212, 6-bromo-3-ethyl-2-((R)-1-((S)-3-ethylpiperazin-1-yl)butyl)quinazolin-4(3H)-one]: the Ki at Human μ-opioid receptor is above 500 nM; in experiment [1] it was below 500 nM.

Consider `CCC[C@H](c1nc2cc(F)c(OC)cc2c(=O)n1CC)N1CCN[C@@H](C)C1` [Example 213, 3-ethyl-7-fluoro-6-methoxy-2-((R)-1-((S)-3-methylpiperazin-1-yl)butyl)quinazolin-4(3H)-one], for which the Ki at Human μ-opioid receptor was above 500 nM; in experiment [1], below 500 nM.

For `CCC[C@H](c1nc2ccc(F)cc2c(=O)n1CC)N1CCN[C@@H](C)C1` [Example 214, 3-ethyl-6-fluoro-2-((R)-1-((S)-3-methylpiperazin-1-yl)butyl)quinazolin-4(3H)-one], the Ki on Human μ-opioid receptor is 100 to 500 nM; in experiment [1] it was below 500 nM.

Take `CCC[C@H](c1nc2ccc(OC)cc2c(=O)n1CC)N1CCN[C@@H](C)C1` [Example 215, 3-ethyl-6-methoxy-2-((R)-1-((S)-3-methylpiperazin-1-yl)butyl)quinazolin-4(3H)-one]: the Ki on Human μ-opioid receptor is above 500 nM; in experiment [1], below 500 nM.

On to `CCC[C@H](c1nc2cc(F)c(F)cc2c(=O)n1CC)N1CCN[C@@H](C)C1` [Example 216, 3-ethyl-6,7-difluoro-2-((R)-1-((S)-3-methylpiperazin-1-yl)butyl)quinazolin-4(3H)-one], for which the results for the Ki (at Human μ-opioid receptor; in experiment [1]) were 100 to 500 nM and below 500 nM, respectively.

With `CCC[C@H](c1nc2c(F)cc(Cl)cc2c(=O)n1CC)N1CCN[C@@H](C)C1` [Example 217, 6-chloro-3-ethyl-8-fluoro-2-((R)-1-((S)-3-methylpiperazin-1-yl)butyl)quinazolin-4(3H)-one], the Ki at Human μ-opioid receptor is below 100 nM; in experiment [1], below 500 nM.
